Consider one compound from patent US8426338B2, “Chelating agents for micronutrient fertilisers” (Adelaide Research and Innovation Pty Ltd, priority 2005, dated 2013).

In one experiment the test system is Canola. Nature of the experiment: Pot experiment: Zn fertiliser uptake by canola on alkaline and calcareous soils. Format: in vivo, Canola (variety Pinnacle). The note with it: 21 days growth, chelate rates PEI 0.043, EDTA 0.37 μM/g soil, FIG. 1. The text has this: A pot experiment was designed to test the availability of Zn to Canola when applied to calcareous and alkaline soils either as ZnSO4.7H2O or chelated with PEI or EDTA.
Soil samples were collected from field sites known to be Zn responsive at Streaky Bay, South Australia and Birchip, Victoria (Table 1). Topsoils from each location were collected, oven dried and passed through a 2 mm sieve. The ^65Zn labelled experimental fertilisers were mixed with 20 g of soil, which was banded between 100 g of the unfertilised bulk soil. Total nutrient application equated to (μg/g soil) P 60, N 27, applied as TGMAP, and Zn 0.2 as ZnSO4.7H2O. Chelate rates were based on the concentrations required to complex 100% of the Zn in the fertiliser solution. Rates varied depending on the stoichiometry of the Zn-ligand complexes. GEOCHEM was used to predict the degree of chelation in the EDTA fertiliser solution. […]
Two pre-germinated Canola seeds (variety Pinnacle) were transferred to each pot. […] Plant digests were analysed for ^65Zn by gamma spectroscopy and for total nutrient contents by ICP-OES.
Data for shoot dry weight, shoot nutrient concentrations and Zn fertiliser uptake were analysed by analysis of variance (ANOVA). Significance between means was determined using the Least Significant Difference (LSD) test.

The subject of the next experiment is canola roots. Nature of the experiment: Uptake of 65Zn from ice-cold solutions into canola roots (apoplast and symplast). It counts as in vivo. Particulars: 30 minutes, FIG. 4. As to the method: Each treatment was replicated in triplicate. After 30 minutes the canola roots were removed from the uptake solutions and rinsed with MilliQ water. Those roots used to measure symplastic absorption of Zn were transferred to ice-cold desorption solutions for 30 minutes in order to desorb apoplastically bound Zn. Desorption solutions contained 2 mM Na-MES (pH 6.0), 5 mM CaCl2 and 60 μM ZnCl2. Canola plants were separated into roots and shoots, blotted dry and weighed. Roots were transferred into radioactivity counting vials, to which 4 ml of 5M HNO3 was added. Samples were left overnight to solubilise the cell contents before the ^65Zn contents of roots were determined by gamma spectroscopy.

A further experiment has as its system Canola seedlings. Particulars: 1 μM ZnSO4; 24-hour uptake; FIG. 6, FIG. 7.

Procedure for Canola seedlings: Canola seedlings (Brassica napus var. Pinnacle) were pre-germinated on filter paper moistened with deionised water. On day 6, the seedlings were transferred to complete nutrient solution and moved into the glasshouse. The nutrient solution contained Ca (3.55 mM), Mg (1.45 mM), NO3^− (8.1 mM), H2PO4^− (0.2 mM), Cl (10 μM), Na (1.1 mM), K (1.2 mM), SO4 (1.45 mM), H3BO3 (30 μM), MoO4^2− (0.2M), FeEDDHA (25 μM), Mn (10 μM), Zn (1 μM), Cu (1 μM), buffered at pH 6.0 with 2 mM MES (2-morpholinoethanesulphonic acid, 50% as potassium salt) (Kupper et al, 2000). After 14 days, the canola plants, three per pot, were transferred to pre-treatment solution for 24 hours. Pre-treatment solution contained 2 mM NaMES (pH 6.0) and 0.5 mM CaCl2. Following pre-treatment, the plants were used in the ^65Zn uptake experiments.
Pre-treated canola seedlings were transferred to uptake solutions containing 2 mM KMES (pH 6.0), 0.5 mM CaCl2 and 1 μM ZnSO4 as either the metal salt or chelated with EDTA (control) or the eight forms of PEI described above. […]
After a 24-hour uptake period, canola shoots were harvested, weighed and digested in concentrated HNO3 at 140° C. Digest solutions were transferred to radioactivity counting vials for ^65Zn measurement by gamma spectroscopy. […]

For the compound `O=C(O)CN(CCN(CC(=O)O)CC(=O)O)CC(=O)O` [EDTA, ethylenediaminetetraacetic acid], the “Total Zn uptake by canola” value in the experiment with Canola (Birchip Sodosol) and in the experiment with Canola (Streaky Bay calcareous grey sandy loam) was “ineffective” each time. The “Uptake of Zn into the root symplast” value in the experiment with canola roots (10 μM ZnCl2 chelated by 10 μM EDTA or 5 μM PEI) was “not readily absorbed”. For the same compound, the “Uptake of Zn into the root apoplast” value with canola roots (10 μM ZnCl2 chelated by 10 μM EDTA) was “not readily absorbed”. Also, in the experiment on Canola seedlings, the “Zn absorption and translocation to canola shoots (Zn transfer coefficient)” value is “not readily absorbed and translocated to canola shoots”.
